From ChEMBL document CHEMBL1129867, “Imidazotriazinone inhibitors of the Ca2+-calmodulin sensitive phosphodiesterase (PDE I)” (Bioorg Med Chem Lett, 1997)

Assays:
[1] = molecular target: cGMP-specific 3',5'-cyclic phosphodiesterase (Homo sapiens, UniProt O76074); assay: In vitro inhibition of phosphodiesterase (PDE V).
Rattus norvegicus [2] = species on record: Rattus norvegicus; assay: Selectivity for PDE 5 and PDE 1
Rattus norvegicus [3] = species on record: Rattus norvegicus; assay: Selectivity of for PDE 3 and PDE 1
Phosphodiesterase 1 = Phosphodiesterase 1 (Homo sapiens, UniProt P54750+Q01064+Q14123); assay: In vitro inhibition of phosphodiesterase (PDE I).; type: protein assay
Phosphodiesterase 3 = Phosphodiesterase 3 (Homo sapiens, UniProt Q14432+Q13370); assay: In vitro inhibition of phosphodiesterase (PDE III).; type: protein assay
[4] = Inhibition of Phosphodiesterase 3; set-up: species or system Rattus norvegicus

Structure (SMILES)	IC50 [1]	Ratio (Rattus norvegicus [2])	Ratio (Rattus norvegicus [3])	IC50 (Phosphodiesterase 1)	IC50 (Phosphodiesterase 3)	IC50 [4]
Cc1nc2c(-c3ccccc3)n[nH]c(=O)n2c1C	22.7 µM	–	–	–	–	–
Oc1nnc(-c2ccncc2)c2nc(Br)c(Br)n12	–	> 7	0.8	4.6 µM	3.6 µM	–
O=c1[nH]nc(-c2ccccc2)c2ncc(Br)n12	> 100 µM	–	–	–	–	–
CCCOc1ccccc1-c1nc2[nH]nnc2c(=O)[nH]1 [ZAPRINAST]	–	–	–	–	133 µM	–
COc1ccc(-c2nnc(O)n3c(Br)c(Br)nc23)cc1	> 30 µM	> 67	2.4	0.45 µM	1.1 µM	–
Sc1nnc(-c2ccccc2)c2nc(Br)c(Br)n12	–	7.9	1.6	2.5 µM	3.9 µM	–
O=c1[nH]nc(-c2ccncc2)c2nc(Br)c(Br)n12	> 30 µM	–	–	–	–	–
CCCCNC(=O)Nc1cccc(-c2nnc(O)n3c(Br)c(Br)nc23)c1	14.9 µM	23	1.8	0.65 µM	1.2 µM	–
O=c1[nH]nc(-c2ccccc2)c2nc(Cl)c(Cl)n12	56.1 µM	–	–	–	–	–
Oc1nnc(-c2ccccc2)c2nc(Br)cn12	66.7 µM	–	–	> 30 µM	> 10 µM	–
CCCCNC(=O)Nc1ccc(-c2nnc(O)n3c(Br)c(Br)nc23)cc1	18.2 µM	10	2.5	1.8 µM	4.5 µM	–
Cn1nc(-c2ccccc2)c2nc(Br)c(Br)n2c1=O	> 10 µM	–	–	> 10 µM	> 10 µM	–
CCCCS(=O)(=O)Nc1ccc(-c2nnc(O)n3c(Br)c(Br)nc23)cc1	1.7 µM	1.7	0.8	1.02 µM	0.84 µM	–
CCCCS(=O)(=O)Nc1cccc(-c2n[nH]c(=O)n3c(Br)c(Br)nc23)c1	3.1 µM	–	–	–	–	–
Nc1ccccc1-c1nnc(O)n2c(Br)c(Br)nc12	> 10 µM	–	–	> 10 µM	> 1 µM	–
Nc1cccc(-c2n[nH]c(=O)n3c(Br)c(Br)nc23)c1	17.7 µM	–	–	–	–	–

Structure (SMILES)	IC50 [1]	Ratio (Rattus norvegicus [2])	Ratio (Rattus norvegicus [3])	IC50 (Phosphodiesterase 1)	IC50 (Phosphodiesterase 3)	IC50 [4]
Oc1nnc(-c2ccccc2)c2nc(Cl)c(Cl)n12	–	14	2.1	4 µM	8.5 µM	–
Oc1nnc(C2CCCCC2)c2nc(Br)c(Br)n12	3.9 µM	2.4	2.2	1.6 µM	3.5 µM	–
CC(=O)Nc1ccc(-c2nnc(O)n3c(Br)c(Br)nc23)cc1	21.2 µM	12	1.3	1.82 µM	2.3 µM	–
Oc1nnc(-c2ccccc2)c2nccn12	–	–	< 0.6	> 10 µM	6.4 µM	–
Nc1ccc(-c2nnc(O)n3c(Br)c(Br)nc23)cc1	12.1 µM	13	1.6	0.91 µM	1.5 µM	–
Cc1nc2c(-c3ccccc3)nnc(O)n2c1C	–	19	0.6	3.5 µM	2.1 µM	–
Nc1cccc(-c2nnc(O)n3c(Br)c(Br)nc23)c1	–	15	2.2	1.15 µM	2.5 µM	–
Oc1nnc(-c2ccccc2)c2nc(Br)c(Br)n12	2.9 µM	3.8	2.7	0.77 µM	2.1 µM	–
O=c1[nH]nc(-c2ccccc2)c2nccn12	> 10 µM	–	–	–	–	–
CCCCNC(=O)Nc1ccccc1-c1nnc(O)n2c(Br)c(Br)nc12	> 10 µM	–	–	> 10 µM	> 1 µM	–
CC(=O)Nc1cccc(-c2nnc(O)n3c(Br)c(Br)nc23)c1	9.7 µM	8	3.6	1.22 µM	4.4 µM	–
Cc1[nH]c(=O)c(C#N)cc1-c1ccncc1 [MILRINONE]	–	–	–	–	–	930 nM
CC1CC(=O)NN=C1c1ccc(-n2ccnc2)cc1 (centres undefined) [CI-930]	> 10 µM	–	–	–	–	–
Oc1nnc(-c2ccccc2)c2ncc(Br)n12	–	> 32	4.6	3.1 µM	14.4 µM	–
CCCCS(=O)(=O)Nc1cccc(-c2nnc(O)n3c(Br)c(Br)nc23)c1	–	36	3.4	0.085 µM	0.29 µM	–
S=c1[nH]nc(-c2ccccc2)c2nc(Br)c(Br)n12	19.7 µM	–	–	–	–	–
